Measurements: patent US11254705B2, “Cyclic peptide analogs and conjugates thereof” (Sirenas LLC, priority 2016, dated 2022)

Legend:
[1] = test system: BT-474 human mammary gland ductal carcinoma cells; assay: Inhibition of BT-474 cell growth (Cell Titer-Glo, 72 h); type: cell-based; conditions: BT-474 cells, 72 hours of culture, Cell Titer-Glo luminescence
Procedure: (§1) BT-474 human mammary gland ductal carcinoma cells were seeded in a clear polystyrene 96-well microculture plate (Corning® Costar® 96-well flat bottom plate, Cat. #3997) in a total volume of 90 μL/well. After 24 hours of incubation in a humidified incubator at 37° C. with 5% CO2 and 95% air, 10 μL of 10×, serially diluted test agents in growth medium were added to each well (10 pt dose response curve, highest concentration 10 μM of test agent). After 72 hours of culture in a humidified incubator at 37° C., in an atmosphere of 5% CO2 and 95% air, the plated cells and Cell Titer-Glo® (Protnega G7571) reagents were brought to room temperature to equilibrate for 30 minutes. 100 μL of Cell Titer-Glo® reagent was added to each well. The plate was shaken for two minutes and then left to equilibrate for ten minutes. The media/Cell Titer-Glo® reagent was transferred to a white polystyrene 96-well microculture plate (Corning® Costar® 96-well flat bottom plate, Cat. #3917) before reading luminescence on a Tecan GENios microplate reader.
(§2) Percent inhibition of cell growth was calculated relative to untreated control wells. The IC50 value for the test agents was determined using Prism 6.05 by curve-fitting of the data using the following four parameter-logistic equation:
[formula] where Top is the maximal % of control absorbance, Bottom is the minimal % of control absorbance at the highest agent concentration, Y is the % of control absorbance, X is the agent concentration, IC50 is the concentration of agent that inhibits cell growth by 50% compared to the control cells, and n is the slope of the curve. […]

HCC1954 cells = assay: Inhibition of HCC1954 cell growth (method analogous to BT-474); type: cell-based; conditions: Homo sapiens
Procedure: as §1, §2
[formula] where Top is the maximal % of control absorbance, Bottom is the minimal % of control absorbance at the highest agent concentration, Y is the % of control absorbance, X is the agent concentration, IC50 is the concentration of agent that inhibits cell growth by 50% compared to the control cells, and n is the slope of the curve.
Inhibitory response of test compounds against HCC1954 cells was determined using a method analogous to that used for BT-474 cells.

SMILES	IC50 [1]	IC50 (HCC1954 cells)
C/C=C(\C)[C@H]1OC(=O)[C@@H](C)NC(=O)[C@H](C(C)CC)NC(=O)CN(C)C(=O)[C@@H](Cc2ccccc2)N(C)C(=O)[C@H](C)NC(=O)[C@@H](CC(C)C)OC(=O)/C(C)=C/C[C@H](OC(=O)NCCCCCCO)[C@@H]1C (stereo partly drawn) [Compound 4, (2R,5S,8R,14S,17R,20S,21S,22S,E)-8-benzyl-20-((E)-but-2-en-2-yl)-14-((R)-sec-butyl)-2-isobutyl-5,7,10,17,21,25-hexamethyl-3,6,9,12,15,18,26-heptaoxo-1,19-dioxa-4,7,10,13,16-pentaazacyclohexacos-24-en-22-yl(6-hydroxyhexyl)carbamate]	0.523 nM	3.21 nM
C/C=C(\C)[C@H]1OC(=O)[C@@H](C)NC(=O)[C@H](C(C)CC)NC(=O)CN(C)C(=O)[C@@H](Cc2ccccc2)N(C)C(=O)[C@H](C)NC(=O)[C@@H](CC(C)C)OC(=O)/C(C)=C/C[C@H](OC(=O)NCCCCCCCO)[C@@H]1C (stereo partly drawn) [Compound 5, (2R,5S,8R,14S,17R,20S,21S,22S,E)-8-benzyl-20-((E)-but-2-en-2-yl)-14-((R)-sec-butyl)-2-isobutyl-5,7,10,17,21,25-hexamethyl-3,6,9,12,15,18,26-heptaoxo-1,19-dioxa-4,7,10,13,16-pentaazacyclohexacos-24-en-22-yl(7-hydroxyheptyl)carbamate]	0.329 nM	1.11 nM
C/C=C(\C)[C@H]1OC(=O)[C@@H](C)NC(=O)[C@H]([C@H](C)CC)NC(=O)CN(C)C(=O)[C@@H](Cc2ccccc2)N(C)C(=O)[C@H](C)NC(=O)[C@@H](CC(C)C)OC(=O)/C(C)=C/C[C@H](OC(=O)NCCCCCCCCO)[C@@H]1C [Compound 6, (2R,5S,8R,14S,17R,20S,21S,22S,E)-8-benzyl-20-((E)-but-2-en-2-yl)-14-((R)-sec-butyl)-2-isobutyl-5,7,10,17,21,25-hexamethyl-3,6,9,12,15,18,26-heptaoxo-1,19-dioxa-4,7,10,13,16-pentaazacyclohexacos-24-en-22-yl (8-hydroxyoctyl)carbamate]	0.93 nM	1.66 nM
C/C=C(\C)[C@H]1OC(=O)[C@@H](C)NC(=O)[C@H]([C@H](C)CC)NC(=O)CN(C)C(=O)[C@@H](Cc2ccccc2)N(C)C(=O)[C@H](C)NC(=O)[C@@H](CC(C)C)OC(=O)/C(C)=C/C[C@H](OC(=O)N(C)CCCCCCNC)[C@@H]1C [Compound 8, (2R,5S,8R,14S,17R,20S,21S,22S,E)-8-benzyl-20-((E)-but-2-en-2-yl)-14-((R)-sec-butyl)-2-isobutyl-5,7,10,17,21,25-hexamethyl-3,6,9,12,15,18,26-heptaoxo-1,19-dioxa-4,7,10,13,16-pentaazacyclohexacos-24-en-22-yl methyl(6-(methylamino)hexyl)carbamate]	8.66 nM	31.9 nM
C/C=C(\C)[C@H]1OC(=O)[C@@H](C)NC(=O)[C@H]([C@H](C)CC)NC(=O)CN(C)C(=O)[C@@H](Cc2ccccc2)N(C)C(=O)[C@H](C)NC(=O)[C@@H](CC(C)C)OC(=O)/C(C)=C/C[C@H](OC(=O)N2CCN(CCO)CC2)[C@@H]1C [Compound 9, (2R,5S,8R,14S,17R,20S,21S,22S,E)-8-benzyl-20-((E)-but-2-en-2-yl)-14-((R)-sec-butyl)-2-isobutyl-5,7,10,17,21,25-hexamethyl-3,6,9,12,15,18,26-heptaoxo-1,19-dioxa-4,7,10,13,16-pentaazacyclohexacos-24-en-22-yl-4-(2-hydroxyethyl)piperazine-1-carboxylate]	0.15 nM	0.25 nM
C/C=C(\C)[C@H]1OC(=O)[C@@H](C)NC(=O)[C@H](C(C)CC)NC(=O)CN(C)C(=O)[C@@H](Cc2ccccc2)N(C)C(=O)[C@H](C)NC(=O)[C@@H](CC(C)C)OC(=O)/C(C)=C/C[C@H](OC(=O)NCCOCCO)[C@@H]1C (stereo partly drawn) [Compound 11, (2R,5S,8R,14S,17R,20S,21S,22S,E)-8-benzyl-20-((E)-but-2-en-2-yl)-14-((R)-see-butyl)-2-isobutyl-5,7,10,17,21,25-hexamethyl-3,6,9,12,15,18,26-heptaoxo-1,19-dioxa-4,7,10,13,16-pentaazacyclohexacos-24-en-22-yl (2-(2-hydroxyethoxy)ethyl)carbamate]	1 nM	1.64 nM
C/C=C(\C)[C@H]1OC(=O)[C@@H](C)NC(=O)[C@H]([C@H](C)CC)NC(=O)CN(C)C(=O)[C@@H](Cc2ccc(Cl)cc2)N(C)C(=O)[C@H](C)NC(=O)[C@@H](CC(C)C)OC(=O)/C(C)=C/C[C@H](O)[C@@H]1C [Compound 15, (3R,6S,12R,15S,18R,24S,25S,26S,E)-26-((E)-but-2-en-2-yl)-6-((R)-sec-butyl)-12-(4-chlorobenzyl)-24-hydroxy-18-isobutyl-3,10,13,15,21,25-hexamethyl-1,19-dioxa-4,7,10,13,16-pentaazacyclohexacos-21-ene-2,5,8,11,14,17,20-heptaone]	2.62 nM	4.37 nM
